How the values were obtained:
[1] = Cytotoxicity assay on human foreskin fibroblast (HFF), resazurin; assay type: cell-based; details: human foreskin fibroblast (HFF) cells, tested up to 200 μM, read-out: HFF cytotoxic activity (EC50)
Description: Cytotoxicity assay on human foreskin fibroblast (HFF): Toxicity of test compounds to mammalian cells was carried out using the resazurin assay previously described31 with slight modifications as follows. HFF cells were grown in a culture medium containing 500 mL of Dulbecco's modified Eagle's medium (DMEM; Sigma), 50 mL newborn calf serum (NBCS; Gibco), 5 mL penicillin/streptomycin (Gibco), and 5 mL of L‐Glutamax ([…], Gibco), at 37 °C and 5 % CO2 in vented flasks and passaged at 80–85 % of confluence. For the cytotoxicity assay, cells were suspended at 3×10^5 cells mL^−1 and 100 μL aliquots were added to each well of a 96‐well plate. The plate was incubated at 37 °C and 5 % CO2 for 24 h to allow cell adhesion. Serial test compounds dilution was performed in a different 96‐well plate and 100 μL of each dilution was transferred to each well containing cells, resulting in exposure of cells to 200–0.2 μM of test compound. Phenylarsine oxide (Sigma–Aldrich) was used as positive control and drug‐free incubation as negative control. The plates were incubated at 37 °C and 5 % CO2 for an additional 30 h, at which point 10 μL of resazurin solution ([…] in PBS) was added, followed by a final incubation for 24 h. The plates were read and the data analyzed as described above for the trypanosome assay.

[2] = system: T. b. brucei 427WT trypomastigotes; assay: Reactive oxygen species (ROS) assay (DCFH-DH); assay type: cell-based, Trypanosoma brucei brucei; details: incubation up to 2 h, multiples of EC50
Description: Reactive oxygen species (ROS) assay on T. b. brucei: The production of ROS when T. b. brucei 427WT trypomastigotes incubated with different concentration (2.5×EC50; 1.25×EC50; 0.3×EC50) of test compound was assessed using the indicator dye 2,7‐dichlorodihydrofluorescein diacetate (DCFH‐DH; Sigma–Aldrich). This assay was performed in a 96‐well black‐bottomed well plate; 200 μL of each test compound solution, at 5×EC50 in assay buffer pH 7.3, was added to the well in the first column of the plate and doubling dilutions were carried out across the row, after which 3×10^6 cell in 100 μL of assay buffer were added to each well, immediately followed by 2 μL of 1 mM DCFH‐DH, under minimal light conditions. The plates were incubated in a FLUOstar OPTIMA fluorimeter at 37 °C 5 % CO2 and the fluorescence was monitored at 485 nm for the excitation, 520 nm for the emission for 3 h, taking readings of each well every 2 min. Three wells were included in the plate as controls: 1) 3×10^6 cells per well in assay buffer without test compound; 2) 3×10^6 cells per well in assay buffer with 2 μL of 10 mM H2O2; 3) assay buffer without cells and test compound.

T. b. brucei ISMR1 = assay: In vitro drug susceptibility assay (resazurin), dyskinetoplastic ISMR1 strain; assay type: cell-based, Trypanosoma brucei brucei; details: isometamidium-resistant line
Description: Organisms and culture media: Only bloodstream trypomastigotes of T. b. brucei were used throughout this study. […] Parasites were cultured in vented flasks at 37 °C and 5 % CO2 atmosphere and they were passaged every 3 days. Bloodstream forms of T. congolense savannah‐type strain IL3000 were cultured in basal MEM medium, supplemented by 10 % fresh goat serum, 14 μL of β‐mercaptoethanol, 800 μL of 200 mM glutamine solution, and 10 mL of penicillin/streptomycin solution per liter of medium (pH 7.3).48 T. congolense were cultured in six‐well plates at 34 °C and 5 % CO2.
In brief, the assays were performed in 96‐well plates with 2×10^5 cells per well for T. b. brucei or 5×10^5 cells per well for T. congolense, in their respective culture media. First, 200 μL of test compounds’ solutions (400 μM, in T. brucei or T. congolense medium as appropriate) was added to the first well of each 12‐well row, from which doubling dilutions were conducted over one row per test compound. […] Fluorescence was detected using a FLUOstar Optima (BMG Labtech, Durham, NC, USA) at wavelength of 540 nm (excitation), 590 nm (emission). EC50 values were calculated by nonlinear regression using an equation for a sigmoidal dose–response curve with variable slope using Prism 5.0 (GraphPad Software Inc., San Diego, CA, USA).

HFF cells = assay: ATP assay on HFF cells; assay type: cell-based, human; details: 22 at 200 μM, oligomycin 2 μg/mL; 0, 4, 8 h
Description: ATP assay on T. b. brucei and HFF cells: Changes in cellular ATP levels due to the exposure of trypanosomes to the test compounds (0.5×EC50) were monitored using the Molecular Probes ATP Determination Kit (A22066, Invitrogen Detection Technologies), based on the luciferin–luciferase bioluminescent enzymatic reaction. Bloodstream trypomastigote cultures of T. brucei s427WT were incubated with and without test compound, and, at each predetermined incubation time, 10^7 cells of each sample were transferred into a microfuge tube and centrifuged at 2000×g for 10 min at 4 °C. The pellet was washed twice with 1 mL of 50 mM Tris⋅HCl (pH 7.4) containing 0.1 mM DTT, and then resuspended in 200 μL of the same buffer. […] ATP levels were quantified using the contents of the kit following the manufacturer's instructions; 90 μL of standard reaction solution was added to each well of a 96‐well plate and the background luminescence was recorded in a FLUOstar OPTIMA fluorimeter; 10 μL of each sample was then added to each well. The plate was incubated at 28 °C for 15 min and the luminescence was measured, including a standard curve with an ATP concentration ranging from 1 nM to 1 μM to allow the calculation of the ATP concentrations in each sample. The ATP content was measured at 0, 0.5, 1, 2, 4, 8 and 12 h of incubation with test sample. […]

| Structure (SMILES) | EC50 at 54 h [1] | ROS production [2] | EC50 in ISMR1 relative to 427WT tested in parallel (T. b. brucei ISMR1) | effect on cellular ATP levels of HFF cells (HFF cells) |
| --- | --- | --- | --- | --- |
| COc1cccc2c1C(=O)C=C(Oc1cccc(CCCCCCCCO)c1)C2=O [Compound 20, 2‐(3‐(8‐Hydroxyoctyl)phenoxy)‐5‐methoxynaphthalene‐1,4‐dione] | > 200 µM | dose‐dependently increased | did not show a significant increase in the EC50 values | – |
| O=C1C(Oc2cccc(CCCCCCCCO)c2)=CC(=O)c2c(O)cccc21 [Compound 22, 5‐Hydroxy‐2‐(3‐(8‐hydroxyoctyl)phenoxy)naphthalene‐1,4‐dione] | > 200 µM | dose‐dependently increased | did not show a significant increase in the EC50 values | only a very minor effect on cellular ATP levels |
